Assay results published in patent US10314816B2, “Antimicrobial compounds, compositions and methods of use thereof” (Wisconsin Alumni Research Foundation, priority 2012, dated 2019).

How the values were obtained:
B. subtilis 168 = experiment: MIC of bacterial growth, macrodilution (Table 2); format: cell-based; conditions: Bacillus subtilis
Protocol: Bacterial strains and growth conditions. Luria-Bertani (LB) media (10 g/L tryptone, 10 g/L NaCl, 5 g/L yeast extract, pH 7.2) was used to grow B. subtilis 168, S. aureus FRI100, and P. aeruginosa K1115 strains. For P. aeruginosa PAO1 and K1119 strains and two E. coli BW25113 strains, M8 minimal media (241 mg/L MgSO4, 4 mg/L glucose, 5 mg/L casamino acids, 12.8 g/L Na2HPO4.7H2O, 3 g/L KH2PO4, and 0.5 g/L NaCl) was used. PYE media (2 g/L peptone, 1 g/L yeast extract, 0.8 mM MgSO4, and 0.5 mM CaCl2) was used for culturing C. crescentus cells at 30° C. All cultures were grown at 37° C., except for C. crescentus (30° C.). All cultures were grown while shaking at 200 rpm.
Determination of the minimum inhibitory concentration (MIC) of bacterial growth. The MIC of various organisms in liquid media was determined using the macrodilution method according to the NCCLS guidelines. For the starting inoculum, cultures were diluted to contain approximately 5×10^5 cells/mL in growth media. To create a two-fold dilution series for the macrodilution technique, each compound was added to the first culture tube (4 mL total volume) at the highest concentration. 2 mL of this culture was diluted into an equal volume of inoculated media (a two-fold dilution). The final volume for each culture was 2 mL.

C. crescentus CB15N [1] = experiment: Minimum stationary-bactericidal concentration (MSC); format: cell-based, Caulobacter crescentus; conditions: for MSC: C. crescentus CB15N, stationary cells, 24 hours
Protocol: Determination of the Minimum Stationary-Bactericidal Concentration.
Cultures of C. crescentus (24 hour incubation) and S. aureus cells (5 day incubation) were grown from single colonies. Cells were collected by centrifugation (8500 rpm for 2.5 minutes) and re-suspended in M2 salt solution (for C. crescentus; 1.74 g/L Na2HPO4, 1.06 g/L KH2PO4, and 0.5 g/L NH4Cl) or phosphate-buffered saline (for S. aureus; PBS, Fisher Scientific). The centrifugation and re-suspension was repeated two more times. After the repeated washing steps, the cell suspension was diluted 10-fold to achieve approximately 10^8 cells/mL. Aliquots of the diluted cell suspension were transferred into wells of a 96-well plate (100 μL/well), and 2-fold serial dilutions were performed to test a range of antibiotic concentrations. The plate was sealed with Parafilm® and incubated for 24 hours at room temperature in the dark. After incubation, 50 μl was removed from each well to spread on nutrient agar plates (1.5% agar in PYE for C. crescentus, and LB for S. aureus). The colonies on each plate were counted after growing the cells for 1-2 days. For determining the kinetics of bactericidal activity of DCAP on stationary cultures, the washed cells were diluted by 100-fold in appropriate solutions and tested using a single concentration of the compound while including a DMSO control sample. Cell suspensions were kept in closed microcentrifuge tubes instead of the wells of 96-well plates. 100 μL of the suspensions was removed for plating at each time point. All MSC experiments were performed in static conditions.
In addition to its activity against actively growing bacteria, DCAP kills cells in stationary phase (Table 3). This property was tested against C. crescentus and S. aureus. […] To ensure that bacteria were deprived of nutrients, the cells were grown into late stationary phase (i.e., 24 hours for C. crescentus and 5 days for S. aureus). These cells were collected, suspended in isotonic solutions devoid of amino acids or sugars, and treated with a small molecule (DMSO, DCAP, CCCP or ampicillin). Cell viability was measured over time by plating culture aliquots on non-selective, solid growth media. The minimum concentration of antibiotic required to completely eliminate colony formation was designated as the minimum stationary-bactericidal concentration (MSC). […] CCCP inhibited the proliferation of C. crescentus cells regardless of their physiological status. However, the MSC of CCCP for S. aureus was >300-fold higher than the MIC. This dramatic decrease in the effectiveness of CCCP in S. aureus may be due to changes in membrane composition as cells adjust their metabolism in nutrient-deprived conditions.

C. crescentus CB15N [2] = experiment: Minimum biofilm inhibitory concentration (bMIC); format: cell-based, Caulobacter crescentus
Protocol: Determination of the minimum biofilm inhibitory concentration of growth (bMIC) and biofilm eradication concentration (MBEC). Overnight cultures of C. crescentus and S. aureus were grown and diluted 100-fold into appropriate nutrient media. Aliquots of the diluted suspension were transferred into wells of 96-well plates (150 μL/well). 2-fold serial dilutions were performed for compound-containing wells. For every experiment, three replicates for each compound concentration tested were included. After transferring aliquots of the suspension, the plates were closed with specialized lids that have protruding pins (Nunc STP System), and the plates were sealed using Parafilm®. The plates were incubated in a static incubator at 30° C. (C. crescentus) or 37° C. (S. aureus) for 24 hours. After the cells had formed biofilms on the surface of the pins, the pins were rinsed by dipping them in M2 (C. crescentus) or PBS (S. aureus) solutions. To rinse the pins, clean, sterile 96-well plates were used (aliquots of 200 μL/well); each rinse lasted 10 sec. After washing away planktonic cells loosely bound to biofilms, the pins were inserted into a 96-well plate that was pre-aliquoted with nutrient media containing antibiotics (2-fold dilutions, a final volume of 150 μL/well). The plates were sealed with Parafilm®, and incubated for 17 hours, and the bMIC was measured at the end of the incubation by visual inspection. […] The plates were sealed with Parafilm®, incubated for 24 hours, and the MBEC was measured at the end of the incubation by visual inspection.
Membrane-active compounds are also efficient at eradicating biofilm-associated cells (Table 2). […] To determine the efficacy of antibiotics against biofilms, the minimum biofilm inhibitory concentration (bMIC) and the minimum biofilm eradication concentration (MBEC) were measured. […] After 24 hours of exposure to compounds, the lowest concentration of antibiotic that inhibited planktonic cell growth in the wells (bMIC) was determined.

Compound	MIC (B. subtilis 168)	MSC (C. crescentus CB15N [1])	bMIC (C. crescentus CB15N [2])	Minimum time required to obtain the MSC (C. crescentus CB15N [1]; C. crescentus)
N#CC(C#N)=NNc1cccc(Cl)c1 [CCCP, carbonyl cyanide m-chlorophenyl hydrazone]	10 µM	2.5 µM	5 µM	–
OCC(CO)(CO)NCC(O)Cn1c2ccc(Cl)cc2c2cc(Cl)ccc21 (stereo not shown) [DCAP, 2-((3-(3,6-dichloro-9H-carbazol-9-yl)-2-hydroxypropyl)amino)-2-(hydroxymethyl)propane-1,3-diol]	32 µM	20 µM	20 µM	2 h
